Several values for one entry are separate records, joined by “and”; a condition that tells them apart may be missing. Equal values may be shown once.
What follows are compounds tested on anticortisol antibody composite (assay: Cross-reactivity (specificity) of the solid phase cortisol radioimmunoassay). Details: ratio of the cortisol level to the steroid level at fifty percent relative displacement of labeled cortisol from immobilized anti-cortisol antibody.
Format: binding
Parameters: key: ratio of cortisol to cross-reactant amount at 50% displacement
Method: (§1) A lyophilized mixture of the tracer (about 50,000 DPM), 200 μg of ANS, and PBS is reconstituted to a 100 μl solution with water in an identified glass test tube to which is pipetted a […] serum sample having an unknown cortisol concentration. A non-interferring red dye such as Durkees Staff Brand may be included with the tracer solution to indicate that presence of the tracer.
(§2) Then, a 1 ml suspension of the immobilized antibodies (0.20 mg of anti-cortisol antibodies chemically coupled via N-hydroxysuccinimide linkage to silanized glass particles having an average particle size of about 1.7 microns is pipetted into the tube. The tube is vortexed for 2 or 3 seconds, allowing the composite of immobilized antibodies to be suspended. The reaction tube is incubated for about 1 hour at room temperature. The tube is then centrifuged for about 10 minutes at about 1400 to 1600 gravities (g). The relatively high density of the glass support facilitates this separation step. After centrifugation, the supernatant fluid is decanted and it or the composite at the bottom of the tube is counted for radioactivity. Since the amount of radioactivity in disintegrations per minute (DPM) of the initial tracer was known, the amount associated with the composite (that which competed with the unknown cortisol for sites on the composite), provides an indication of the cortisol present, using known correlation techniques.
The cross-reactivity of the anticortisol antibody composite for a substance may be expressed as the ratio of the amount of cortisol required to displace 50% of the labeled antigen from the antibody, to the amount of cross-reacting substance needed to cause a similar displacement.

Structure (SMILES) | Ratio of Cross Reactivity
C[C@]12CC[C@@H]3c4ccc(O)cc4CC[C@H]3[C@@H]1C[C@@H](O)[C@@H]2O [Estriol] | < 0.001
C[C@]12CC[C@@H](O)C[C@H]1CC[C@@H]1[C@@H]2[C@@H](O)C[C@@]2(C)[C@H]1CC[C@]2(O)C(=O)CO [Tetrahydrocortisol] | < 0.001
C[C@]12C=CC(=O)C=C1CC[C@@H]1[C@@H]2C(=O)C[C@@]2(C)[C@H]1CC[C@]2(O)C(=O)CO [Prednisone] | 0.004
C[C@]12CCC(=O)C=C1CC[C@@H]1[C@@H]2CC[C@]2(C)C(=O)CC[C@@H]12 [Androstenedione] | < 0.004
C[C@]12CC[C@H]3[C@@H](CCC4=CC(=O)CC[C@@]43C)[C@@H]1CC[C@@H]2C(=O)CO [11-Desoxycorticosterone] | 0.10
C[C@]12C=CC(=O)C=C1CC[C@@H]1[C@@H]2[C@@H](O)C[C@@]2(C)[C@H]1CC[C@]2(O)C(=O)CO [Prednisolone] | 0.10
C[C@]12C[C@H](O)[C@H]3[C@@H](CCC4=CC(=O)CC[C@@]43C)[C@@H]1CC[C@@H]2C(=O)CO [Corticosterone] | 0.12
CC(=O)[C@H]1CC[C@H]2[C@@H]3CCC4=CC(=O)CC[C@]4(C)[C@H]3CC[C@]12C [Progesterone] | 0.041
C[C@]12CC[C@H]3[C@@H](CCC4=CC(=O)CC[C@@]43C)[C@@H]1CC[C@@H]2O [Testosterone] | 0.002
C[C@]12CC[C@@H]3c4ccc(O)cc4CC[C@H]3[C@@H]1CCC2=O [Estrone] | < 0.001
C[C@]12CCC(=O)C=C1CC[C@@H]1[C@@H]2C(=O)C[C@@]2(C)[C@H]1CC[C@]2(O)C(=O)CO [Cortisone] | 0.008
C[C@@H](O)[C@H]1CC[C@H]2[C@@H]3CCC4=CC(=O)CC[C@]4(C)[C@H]3CC[C@]12C [20β-Hydroxyprogesterone] | 0.026
C[C@]12CCC(=O)C=C1CC[C@@H]1[C@@H]2[C@@H](O)C[C@@]2(C)[C@H]1CC[C@]2(O)C(=O)CO [Cortisol] | 1.00
CC(C)CCC[C@@H](C)[C@H]1CC[C@H]2[C@@H]3CC=C4C[C@@H](O)CC[C@]4(C)[C@H]3CC[C@]12C [Cholesterol] | < 0.001
CC(=O)[C@@]1(O)CC[C@H]2[C@@H]3CCC4=CC(=O)CC[C@]4(C)[C@H]3CC[C@@]21C [17α-Hydroxyprogesterone] | 0.026
C[C@]12CC[C@@H]3c4ccc(O)cc4CC[C@H]3[C@@H]1CC[C@@H]2O [Estradiol-17β] | < 0.001
C[C@]12CCC(=O)C=C1CC[C@@H]1[C@@H]2CC[C@@]2(C)[C@H]1CC[C@]2(O)C(=O)CO [11-Desoxycortisol] | 0.11
C[C@]12CCC(=O)C[C@@H]1CC[C@@H]1[C@@H]2CC[C@]2(C)[C@@H](O)CC[C@@H]12 [5α-Dihydrotestosterone] | 0.007

These compounds were tested against T1, transcortin (TC) (Homo sapiens, UniProt P08185) (assay: Cortisol released from serum sample (release from TC) by ANS and pH, compared with heat denaturation). Details: typical patient serum samples; one value per patient sample; compared with heating at 100° C. for about 10 min.
T1 sequence (P08185 23-405): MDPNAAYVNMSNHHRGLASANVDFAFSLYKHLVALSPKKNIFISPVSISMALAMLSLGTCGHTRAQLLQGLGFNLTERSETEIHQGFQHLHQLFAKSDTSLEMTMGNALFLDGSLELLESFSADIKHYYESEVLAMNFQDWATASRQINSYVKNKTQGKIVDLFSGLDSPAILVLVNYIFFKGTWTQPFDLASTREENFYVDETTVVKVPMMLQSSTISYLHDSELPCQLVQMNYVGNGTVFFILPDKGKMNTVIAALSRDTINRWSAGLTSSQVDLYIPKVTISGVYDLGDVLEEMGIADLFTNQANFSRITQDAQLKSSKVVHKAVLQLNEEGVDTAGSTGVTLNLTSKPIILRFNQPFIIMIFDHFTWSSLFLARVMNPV
Method: as §1
as §2, with “Since the amount of radioactivity in disintegrations per minute (DPM) of the initial tracer was known, the amount associated with the composite (that which competed with the unknown cortisol for sites on the composite), provides an indication of the cortisol present, using known correlation techniques.” left out

Structure (SMILES) | Cortisol Released
O=S(=O)(O)c1cccc2cccc(Nc3ccccc3)c12 [ANS, 8-anilino-1-naphthalene sulfonic acid] | 59 ng/mL and 90 ng/mL and 270 ng/mL and 465 ng/mL

From patent publication US4128629A, “Extraction-free cortisol assay” (Corning Glass Works, priority 1977, dated 1978)
